The values that follow come from article PMC11882969 (Nature Communications, 2025).

The test deals with CB1 (rCB1) (Rattus norvegicus, UniProt P20272). In words: Single-point radioligand displacement screen. The settings on record: for % 1H-CP-55,940 displacement (mean) from single point screen: 10 µM, 1 µM or 300 nM by cell colour (not visible). The format is binding. For orientation: Loss of bound radioactivity is the signal in a displacement assay; it reports binding, not function.
Sequence of CB1 (rCB1) (P20272 whole entry): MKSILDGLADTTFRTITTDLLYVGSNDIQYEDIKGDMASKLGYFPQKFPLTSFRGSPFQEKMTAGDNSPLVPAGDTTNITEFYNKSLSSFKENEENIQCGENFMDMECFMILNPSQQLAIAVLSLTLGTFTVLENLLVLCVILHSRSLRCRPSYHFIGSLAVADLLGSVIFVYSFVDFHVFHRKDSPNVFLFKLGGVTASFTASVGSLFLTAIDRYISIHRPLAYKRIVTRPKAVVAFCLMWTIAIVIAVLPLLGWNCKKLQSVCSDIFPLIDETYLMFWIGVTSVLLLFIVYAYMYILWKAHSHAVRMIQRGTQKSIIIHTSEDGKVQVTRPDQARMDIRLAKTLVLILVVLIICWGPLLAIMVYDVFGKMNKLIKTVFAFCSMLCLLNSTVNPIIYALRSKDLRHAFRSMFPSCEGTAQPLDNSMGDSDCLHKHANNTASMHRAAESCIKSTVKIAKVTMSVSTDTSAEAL

As for `Cc1nc(CC2CC2)oc1-c1nc(Cn2c(C(C)C)nc3ccccc32)no1` [7019_26], the “% 1H-CP-55,940 displacement (mean) from single point screen” value (“% 1H-CP-55,940 displacement (mean)” for short) came to 42.67%.

Regarding `CN(CCOc1ccc(Br)cc1)c1ncnc(-c2ccccc2)n1` [compound 55901], the “% 1H-CP-55,940 displacement (mean)” value was determined as 23.61%. In addition, where the note is “Figure 1c source data, replicate 1”, the rep1_displacement is 24.5. The same compound displayed a rep2_displacement (Figure 1c source data, replicate 2) of 26.2. This compound also showed a rep3_displacement (Figure 1c source data, replicate 3) of 20.1.

Consider `CC1(C)CN(C(=O)c2cn(-c3cccc(C(F)(F)F)c3)nn2)C1c1cccs1` (stereo not drawn) [10_20], for which the “% 1H-CP-55,940 displacement (mean)” value turned out to be 52.38%.
